Reference: US4385060A, “Penicillins” (Beecham Group Limited, priority 1979, dated 1983)
Entries after “also recorded” stand apart in the source; their conditions may differ.

What was measured:
[1] = Oral absorption in fasting human volunteers (syrup): serum ticarcillin, AUC and urinary excretion by bio-assay, Experiments A-D; assay type: in vivo
Procedure: To obtain the results shown in table 1, the two esters of ticarcillin were each given to a panel of fasting human volunteers in a syrup formulation in an amount equivalent to provide either 200 or 400 mg (as stated in table 1) of the free ticarcillin after the expected in vivo hydrolysis. Periodic blood samples were taken from the volunteers and each assayed for ticarcillin content by a standard bio-assay technique. The urine excreted by each volunteer within the 6 hours following administration was also collected and assayed for the free ticarcillin. All three parameters (viz the urinary excretion level, the peak serum concentration achieved and the total area under the curve when the serum concentration is plotted against time) are indications of the minimum degree to which the penicillin ester has been absorbed after oral administration and then hydrolysed in vivo.

[2] = Intact ester in blood and urine after oral administration to human volunteers; assay type: in vivo; details: urine, read-out: ester present in urine
[3] = Oral administration as syrup equivalent to 400 mg ticarcillin, phenyl vs p-tolyl ester (data of British Pat. No. 1,455,529); assay type: in vivo, man
Description: The improved bioavailability can also be seen from the individual mean serum concentration figures in table 1. […] This can be seen by the comparison with the phenyl ester and for convenience the data from specification No. 1,455,529 is repeated in table 3 below:
(Administration as syrup containing equivalent

[4] = in words; cited from earlier work

Compound	urinary recovery of ticarcillin compared to the phenyl ester ([1]; in words)	bioavailability of ticarcillin after oral administration compared to the phenyl ester ([1]; in words, AUC, listed as α-ortho-tolyl ester)	bioavailability as measured by AUC higher than for the phenyl ester ([1]; o-tolyl vs phenyl ester, oral, man, overall)	dose excreted at 6 h [2]	oral absorption compared to the ortho ester ([3]; in words, p-tolyl vs α-ortho ester)	statistical significance of differences in mean serum concentrations ([3]; p-tolyl vs phenyl ester, table 3)	oral absorption in man [4]
Cc1ccccc1OC(=O)C(C(=O)N[C@@H]1C(=O)N2[C@@H]1SC(C)(C)[C@@H]2C(=O)O)c1ccsc1 (stereo partly drawn) [o-tolyl, 6β-[2-(2'-methylphenoxycarbonyl)-2-thien-3'-ylacetamido]penicillanic acid]	greater urinary recovery	considerably greater; also recorded: two- to three-fold greater	120-220%	~2%			
Cc1ccc(OC(=O)C(C(=O)N[C@@H]2C(=O)N3[C@@H]2SC(C)(C)[C@@H]3C(=O)O)c2ccsc2)cc1 (stereo partly drawn) [p-tolyl, α-para-tolyl mono-ester of α-carboxy-3-thienylmethyl penicillin]					much less well absorbed	not statistically significant	high degree of oral absorption in man
CC1(C)S[C@@H]2[C@H](NC(=O)C(C(=O)Oc3ccccc3)c3ccsc3)C(=O)N2[C@H]1C(=O)O (stereo partly drawn) [phenyl, α-phenyl ester of α-carboxy-3-thienylmethyl penicillin, reference compound]				~1%			
